Laboratory results published in US11759455B2, “Substituted 1H-imidazo[4,5-b]pyridin-2(3H)-ones and their use as GLUN2B receptor modulators” (JANSSEN PHARMACEUTICA NV, priority 2016, dated 2023).

Molecular target: T1, human GluN1/GluN2B NMDA receptors (Homo sapiens, UniProt Q13224)
T1 construct: expressed in transfected cells
Test: Cell-based calcium flux (FLIPR) assay on cloned human NR1/NR2B ion channels expressed in mammalian cells (standard and HTS buffer variants);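 further: stable Tet-On inducible cell line, Ca2+ influx triggered by glutamate at about EC40 plus 10 µM glycine, fluorescent dye read-out over 5 min, normalized to control wells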
Details: standard assay buffer (0.5 mM MgCl2 dye loading; 137 mM NaCl, 4 mM KCl assay buffer), human GluN1/GluN2B cells, read-out: NR2B IC50 (μM) standard assay

T1 sequence (Q13224 27-1484, other chains not shown): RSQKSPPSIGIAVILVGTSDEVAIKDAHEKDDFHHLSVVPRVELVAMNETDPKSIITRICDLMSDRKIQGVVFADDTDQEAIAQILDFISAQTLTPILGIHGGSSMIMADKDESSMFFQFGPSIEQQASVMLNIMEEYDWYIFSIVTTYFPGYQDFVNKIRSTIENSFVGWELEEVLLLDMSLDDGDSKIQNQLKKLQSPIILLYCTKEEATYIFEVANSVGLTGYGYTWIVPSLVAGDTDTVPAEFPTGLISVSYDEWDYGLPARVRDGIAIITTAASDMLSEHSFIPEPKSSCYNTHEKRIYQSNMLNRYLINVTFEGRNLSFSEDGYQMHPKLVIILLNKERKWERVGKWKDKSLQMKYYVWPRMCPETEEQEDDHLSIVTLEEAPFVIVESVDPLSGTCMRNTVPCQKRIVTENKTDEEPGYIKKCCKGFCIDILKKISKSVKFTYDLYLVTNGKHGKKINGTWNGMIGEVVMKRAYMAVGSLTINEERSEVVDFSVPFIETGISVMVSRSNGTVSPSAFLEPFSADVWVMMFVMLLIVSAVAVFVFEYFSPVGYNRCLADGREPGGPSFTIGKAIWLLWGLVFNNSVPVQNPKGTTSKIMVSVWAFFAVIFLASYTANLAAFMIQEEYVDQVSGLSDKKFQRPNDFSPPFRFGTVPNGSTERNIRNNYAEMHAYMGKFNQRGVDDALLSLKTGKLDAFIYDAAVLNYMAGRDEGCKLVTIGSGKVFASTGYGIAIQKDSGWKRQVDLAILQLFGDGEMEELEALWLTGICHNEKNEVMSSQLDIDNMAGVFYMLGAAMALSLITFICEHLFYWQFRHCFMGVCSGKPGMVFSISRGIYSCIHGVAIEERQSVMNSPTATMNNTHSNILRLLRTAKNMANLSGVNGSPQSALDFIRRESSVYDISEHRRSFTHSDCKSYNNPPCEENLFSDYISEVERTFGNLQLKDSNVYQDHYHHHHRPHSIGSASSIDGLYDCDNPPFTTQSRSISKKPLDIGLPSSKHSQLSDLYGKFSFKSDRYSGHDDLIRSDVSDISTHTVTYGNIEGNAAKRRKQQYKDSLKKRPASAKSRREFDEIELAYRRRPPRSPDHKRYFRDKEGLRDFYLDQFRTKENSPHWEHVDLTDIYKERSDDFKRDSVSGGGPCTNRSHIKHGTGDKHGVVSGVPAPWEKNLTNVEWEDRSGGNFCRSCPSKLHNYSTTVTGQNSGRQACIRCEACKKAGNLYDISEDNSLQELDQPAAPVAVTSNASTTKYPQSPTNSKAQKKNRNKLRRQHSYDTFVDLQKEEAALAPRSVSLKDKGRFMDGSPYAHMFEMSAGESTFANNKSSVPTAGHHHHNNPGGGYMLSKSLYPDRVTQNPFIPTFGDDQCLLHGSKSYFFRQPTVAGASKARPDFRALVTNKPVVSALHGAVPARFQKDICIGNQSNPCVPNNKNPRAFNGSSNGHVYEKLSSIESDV

IC50 [µM]	Structure (SMILES)
5.36	Cc1ncc(-c2cnc3c(c2)n(CC(=O)N2CC(F)C2)c(=O)n3C)s1 [Example 113, 1-[2-(3-Fluoroazetidin-1-yl)-2-oxo-ethyl]-3-methyl-6-(2-methylthiazol-5-yl)imidazo[4,5-b]pyridin-2-one]
11.7	Cc1ncc(-c2cnc3c(c2)n(CC(=O)N(C)C)c(=O)n3C)s1 [Example 114, N,N-Dimethyl-2-[3-methyl-6-(2-methylthiazol-5-yl)-2-oxo-imidazo[4,5-b]pyridin-1-yl]acetamide]
0.82	Cn1c(=O)n(CC(=O)N2CCC2)c2cc(-c3cnc(C(F)(F)F)s3)cnc21 [Example 115, 1-[2-(Azetidin-1-yl)-2-oxo-ethyl]-3-methyl-6-[2-(trifluoromethyl)thiazol-5-yl]imidazo[4,5-b]pyridin-2-one]
0.705	Cn1c(=O)n(CC(=O)N2CC(F)C2)c2cc(-c3cnc(C(F)(F)F)s3)cnc21 [Example 116, 1-[2-(3-Fluoroazetidin-1-yl)-2-oxo-ethyl]-3-methyl-6-[2-(trifluoromethyl)thiazol-5-yl]imidazo[4,5-b]pyridin-2-one]
0.02	Cn1c(=O)n(CC(=O)N2CC(F)C2)c2cc(-c3cc(C(F)F)cs3)cnc21 [Example 118, 6-[4-(Difluoromethyl)-2-thienyl]-1-[2-(3-fluoroazetidin-1-yl)-2-oxo-ethyl]-3-methyl-imidazo[4,5-b]pyridin-2-one]
0.082	Cc1csc(-c2cnc3[nH]c(=O)n(Cc4cc(C)on4)c3c2)c1 [Example 125, 1-[(5-Methylisoxazol-3-yl)methyl]-6-(4-methyl-2-thienyl)-3H-imidazo[4,5-b]pyridin-2-one]
0.038	Cc1cc(Cn2c(=O)[nH]c3ncc(-c4ccccc4C)cc32)no1 [Example 126, 1-[(5-Methylisoxazol-3-yl)methyl]-6-(o-tolyl)-3H-imidazo[4,5-b]pyridin-2-one]
0.095	Cc1csc(-c2cnc3[nH]c(=O)n(Cc4nc(C)no4)c3c2)c1 [Example 127, 1-[(3-Methyl-1,2,4-oxadiazol-5-yl)methyl]-6-(4-methyl-2-thienyl)-3H-imidazo[4,5-b]pyridin-2-one]
5.16	Cn1ccc(Cn2c(=O)[nH]c3ncc(-c4ccc(F)cc4)cc32)n1 [Example 128, 6-(4-Fluorophenyl)-1-[(1-methylpyrazol-3-yl)methyl]-3H-imidazo[4,5-b]pyridin-2-one]
0.394	Cc1cc(-c2cnc3[nH]c(=O)n(Cc4ccn(C)n4)c3c2)ccc1F [Example 129, 6-(4-Fluoro-3-methyl-phenyl)-1-[(1-methylpyrazol-3-yl)methyl]-3H-imidazo[4,5-b]pyridin-2-one]
4.73	Cn1ccc(Cn2c(=O)[nH]c3ncc(-c4ccc(F)c(Cl)c4)cc32)n1 [Example 130, 6-(3-Chloro-4-fluoro-phenyl)-1-[(1-methylpyrazol-3-yl)methyl]-3H-imidazo[4,5-b]pyridin-2-one]
3.56	Cn1ccc(Cn2c(=O)[nH]c3ncc(-c4ccc(F)c(F)c4)cc32)n1 [Example 131, 6-(3,4-Difluorophenyl)-1-[(1-methylpyrazol-3-yl)methyl]-3H-imidazo[4,5-b]pyridin-2-one]
6.76	Cn1ccc(Cn2c(=O)[nH]c3ncc(-c4ccc(F)cc4F)cc32)n1 [Example 132, 6-(2,4-Difluorophenyl)-1-[(1-methylpyrazol-3-yl)methyl]-3H-imidazo[4,5-b]pyridin-2-one]
0.035	CCOC(=O)Cn1c(=O)[nH]c2ncc(-c3cccc(C(F)(F)F)c3)cc21 [Example 134, Ethyl 2-[2-oxo-6-[3-(trifluoromethyl)phenyl]-3H-imidazo[4,5-b]pyridin-1-yl]acetate]
6	O=C(O)Cn1c(=O)[nH]c2ncc(-c3cccc(C(F)(F)F)c3)cc21 [Example 135, 2-[2-Oxo-6-[3-(trifluoromethyl)phenyl]-3H-imidazo[4,5-1D]pyridin-1-yl]acetic Acid]
0.159	CCOC(=O)Cn1c(=O)n(C)c2ncc(-c3cccc(C(F)(F)F)c3)cc21 [Example 136, Ethyl 2-[3-methyl-2-oxo-6-[3-(trifluoromethyl)phenyl]imidazo[4,5-b]pyridin-1-yl]acetate]
> 10	Cn1c(=O)n(CC(=O)O)c2cc(-c3cccc(C(F)(F)F)c3)cnc21 [Example 137, 2-[3-Methyl-2-oxo-6-[3-(trifluoromethyl)phenyl]imidazo[4,5-b]pyridin-1-yl]Acetic Acid]
0.089	Cn1c(=O)n(CC(=O)N2CC(F)(F)C2)c2cc(-c3cccc(C(F)(F)F)c3)cnc21 [Example 138, 1-[2-(3,3-difluoroazetidin-1-yl)-2-oxo-ethyl]-3-methyl-6-[3-(trifluoromethyl)phenyl]imidazo[4,5-b]pyridin-2-one]
0.084	Cc1c(F)ccc(-c2cnc3c(c2)n(Cc2cnccn2)c(=O)n3C)c1F [Example 139, 6-(2,4-Difluoro-3-methyl-phenyl)-3-methyl-1-(pyrazin-2-ylmethyl)imidazo[4,5-b]pyridin-2-one]
0.105	Cc1noc(Cn2c(=O)[nH]c3ncc(-c4ccc(F)cc4)cc32)n1 [Example 140, 6-(4-Fluorophenyl)-1-[(3-methyl-1,2,4-oxadiazol-5-yl)methyl]-3H-imidazo[4,5-b]pyridin-2-one]

IC50 [µM]	Structure (SMILES)
1.18	Cn1cnc(Cn2c(=O)[nH]c3ncc(-c4ccc(F)cc4)cc32)n1 [Example 141, 6-(4-Fluorophenyl)-1-[(1-methyl-1,2,4-triazol-3-yl)methyl]-3H-imidazo[4,5-b]pyridin-2-one]
0.208	Cn1cc(Cn2c(=O)[nH]c3ncc(-c4ccc(F)cc4)cc32)nn1 [Example 142, 6-(4-Fluorophenyl)-1-[(1-methyltriazol-4-yl)methyl]-3H-imidazo[4,5-b]pyridin-2-one]
0.075	Cc1noc(Cn2c(=O)[nH]c3ncc(-c4ccc(F)c(F)c4)cc32)n1 [Example 143, 6-(3,4-Difluorophenyl)-1-[(3-methyl-1,2,4-oxadiazol-5-yl)methyl]-3H-imidazo[4,5-b]pyridin-2-one]
0.107	Cc1nc(Cn2c(=O)[nH]c3ncc(-c4ccc(F)c(F)c4)cc32)no1 [Example 144, 6-(3,4-Difluorophenyl)-1-[(5-methyl-1,2,4-oxadiazol-3-yl)methyl]-3H-imidazo[4,5-b]pyridin-2-one]
1.31	COCc1noc(Cn2c(=O)[nH]c3ncc(-c4ccc(F)c(F)c4)cc32)n1 [Example 145, 6-(3,4-Difluorophenyl)-1-[[3-(methoxymethyl)-1,2,4-oxadiazol-5-yl]methyl]-3H-imidazo[4,5-b]pyridin-2-one]
0.506	O=c1[nH]c2ncc(-c3cccc(C(F)(F)F)c3)cc2n1CCN1CCCC1 [Example 146, 1-(2-Pyrrolidin-1-ylethyl)-6-[3-(trifluoromethyl)phenyl]-3H-imidazo[4,5-b]pyridin-2-one]
0.365	O=c1[nH]c2ncc(-c3cccc(C(F)(F)F)c3)cc2n1CCN1CC(O)C1 [Example 147, 1-[2-(3-Hydroxyazetidin-1-yl)ethyl]-6-[3-(trifluoromethyl)phenyl]-3H-imidazo[4,5-b]pyridin-2-one]
0.505	O=c1[nH]c2ncc(-c3cccc(C(F)(F)F)c3)cc2n1CCNC1CC1 [Example 148, 1-[2-(Cyclopropylamino)ethyl]-6-[3-(trifluoromethyl)phenyl]-3H-imidazo[4,5-b]pyridin-2-one]
0.756	COC1CN(CCn2c(=O)[nH]c3ncc(-c4cccc(C(F)(F)F)c4)cc32)C1 [Example 149, 1-[2-(3-Methoxyazetidin-1-yl)ethyl]-6-[3-(trifluoromethyl)phenyl]-3H-imidazo[4,5-b]pyridin-2-one]
0.277	O=c1[nH]c2ncc(-c3cccc(C(F)(F)F)c3)cc2n1CCNC1CCC1 [Example 150, 1-[2-(Cyclobutylamino)ethyl]-6-[3-(trifluoromethyl)phenyl]-3H-imidazo[4,5-b]pyridin-2-one]
0.115	Cc1cc(F)ccc1-c1cnc2[nH]c(=O)n(CCN3CCC3)c2c1 [Example 151, 1-[2-(Azetidin-1-yl)ethyl]-6-(4-fluoro-2-methyl-phenyl)-3H-imidazo[4,5-b]pyridin-2-one]
0.127	Cc1ccccc1-c1cnc2[nH]c(=O)n(CCN3CCC3)c2c1 [Example 152, 1-[2-(Azetidin-1-yl)ethyl]-6-(o-tolyl)-3H-imidazo[4,5-b]pyridin-2-one]
0.283	O=c1[nH]c2ncc(-c3ccccc3)cc2n1CCN1CCC1 [Example 153, 1-[2-(Azetidin-1-yl)ethyl]-6-phenyl-3H-imidazo[4,5-b]pyridin-2-one]
0.077	Cc1cccc(-c2cnc3[nH]c(=O)n(CCN4CCC4)c3c2)c1 [Example 154, 1-[2-(Azetidin-1-yl)ethyl]-6-(m-tolyl)-3H-imidazo[4,5-b]pyridin-2-one]
1.75	O=c1[nH]c2ncc(-c3ccnc(C(F)(F)F)c3)cc2n1CCN1CCC1 [Example 155, 1-[2-(Azetidin-1-yl)ethyl]-6-[2-(trifluoromethyl)-4-pyridyl]-3H-imidazo[4,5-b]pyridin-2-one]
0.039	Cc1cc(-c2cnc3[nH]c(=O)n(CCN4CCC4)c3c2)ccc1F [Example 156, 1-[2-(Azetidin-1-yl)ethyl]-6-(4-fluoro-3-methyl-phenyl)-3H-imidazo[4,5-b]pyridin-2-one]
1.97	Cc1cccc(C)c1-c1cnc2[nH]c(=O)n(CCN3CCC3)c2c1 [Example 157, 1-[2-(Azetidin-1-yl)ethyl]-6-(2,6-dimethylphenyl)-3H-imidazo[4,5-b]pyridin-2-one]
0.201	O=c1[nH]c2ncc(-c3cccc(Cl)c3)cc2n1CCN1CCC1 [Example 158, 1-[2-(Azetidin-1-yl)ethyl]-6-(3-chlorophenyl)-3H-imidazo[4,5-b]pyridin-2-one]
0.211	O=c1[nH]c2ncc(-c3cc(F)cc(F)c3)cc2n1CCN1CCC1 [Example 159, 1-[2-(Azetidin-1-yl)ethyl]-6-(3,5-difluorophenyl)-3H-imidazo[4,5-b]pyridin-2-one]

Structure (SMILES)	IC50 [µM]
Cn1c(=O)n(CC(=O)N2CCC2)c2cc(-c3cc(C(F)F)cs3)cnc21 [Example 117, 1-[2-(Azetidin-1-yl)-2-oxo-ethyl]-6-[4-(difluoromethyl)-2-thienyl]-3-methyl-imidazo[4,5-b]pyridin-2-one]	0.038
